Target: T1, CYP90D1 (Arabidopsis thaliana, UniProt Q94IA6)
T1 construct: CYP90D1 mature protein, expressed in E. coli from pCold-GST; fusion cleaved with HRV3C protease
T1 sequence (Q94IA6 1-491): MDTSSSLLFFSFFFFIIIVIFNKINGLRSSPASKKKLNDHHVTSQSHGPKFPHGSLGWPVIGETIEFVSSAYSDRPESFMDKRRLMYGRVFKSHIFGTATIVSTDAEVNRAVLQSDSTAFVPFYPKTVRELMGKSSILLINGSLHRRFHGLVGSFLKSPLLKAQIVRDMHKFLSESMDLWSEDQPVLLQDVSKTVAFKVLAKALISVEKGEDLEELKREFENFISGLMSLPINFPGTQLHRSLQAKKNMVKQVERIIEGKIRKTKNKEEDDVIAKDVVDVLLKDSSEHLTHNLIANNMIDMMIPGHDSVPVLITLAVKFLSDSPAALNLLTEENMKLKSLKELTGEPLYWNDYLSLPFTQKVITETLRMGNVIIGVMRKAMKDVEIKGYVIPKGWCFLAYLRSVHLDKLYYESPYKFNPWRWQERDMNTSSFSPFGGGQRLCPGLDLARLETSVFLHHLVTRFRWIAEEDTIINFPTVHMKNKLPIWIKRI
Experiment: optical difference spectroscopy (type II binding spectrum) titration of purified recombinant CYP90D1

Structure (SMILES): CCOc1ccccc1OCC1COC(Cn2cncn2)(c2ccc(Cl)cc2)O1 (stereo not shown) [YCZ-18]
- Kd: ~790 nM
